Key:
[1] = test system: human bone marrow mononuclear cells (HBMNC); assay: BrdU cell cycle analysis and live cell count in normal cells; type: cell-based; details: 96 h; ispinesib 0.05 μM, paclitaxel 0.05 μM, palbociclib 1 μM
[2] = test system: human foreskin fibroblast (hFSF) cells; assay: BrdU incorporation assay in normal cells; type: cell-based; details: 48 hours
Experimental: (§1) The effect KIF18A inhibitor treatment has on proliferation of normal somatic cells (e.g., not neoplastic cells) was tested by assaying proliferation of human bone marrow mononuclear cells (HBMNCs), primary human foreskin fibroblast cells (hFSF) and human mammary epithelial cells via a 5-bromo-2′-deoxyuridine (BrdU) incorporation assay in which BrdU, an analog of the nucleoside thymidine, is used to identify proliferating cells (Payton et. al., Molecular Cancer Therapeutics, 17(12):2575-85 (2018)). Cells were analyzed on BD LSRFortessa flow cytometer using BD FACSDiva software (BD Biosciences), and post-acquisition data analysis was performed using FSC-Express software (De Novo). The percentage of BrdU positive gated events on the stacked DNA content histograms were reported.

[3] = test system: human mammary epithelial cells (HMEC); assay: BrdU incorporation assay in normal cells; type: cell-based; details: 48 hours
Experimental: as §1

[4] = test system: human bone marrow mononuclear cells (HBMNC); assay: BrdU cell cycle analysis and live cell count in normal cells; type: cell-based
Experimental: as §1
To further examine the effects of KIF18A inhibitor treatment on HBMNC, two normal donors were assessed using the BrdU coupled cell cycle assay and cell count assay (96 hours) was. […] In particular, the amount of BrdU-stained proliferating cells treated with Ispinesib, paclitaxel, or a CDK 4/6 inhibitor (palbociclib) was far less than the amount of vehicle control-treated BrdU-stained cells. […] KIF18A inhibitor treatment was also analyzed for impact on live cell count. After 96 hours, live cells were counted by Vi-CELL XR Cell Viability Analyzer (Beckman Coulter).
To investigate whether KIF18A inhibitors could circumvent this normal cell toxicity barrier, we examined the effects of Compounds C9 and C11 on a panel of cycling normal somatic cell types. First, we treated human bone marrow mononuclear cells (HBMNC) from two normal donors with DMSO, Compound C9 and C11 at 1 μM, ispinesib at 0.05 μM, paclitaxel at 0.05 μM, or palbociclib at 1 μM for 48 h (cell cycle) or 96 h (cell growth).
BrdU and cell cycle analysis. Human bone marrow mononuclear cells (HBMNCs) from two normal donors (#37612, #37534) were cultured for 8 days in defined media as previously described (Payton et al 2018). HBMNCs were seeded in 24-well plate at 1.2×10^6 cells per well in duplicate plates. Cells were treated with DMSO, Compound C9 (1 μM), Compound C11 (1 μM), ispinesib (0.05 μM), paclitaxel ([…]), or palbociclib (1 μM). Cells were collected at 48 h (cell cycle) and 96 h (cell growth). The first set of plates were pulsed with BrdU for 2 h and processing for BrdU cell cycle analysis as previously described (Payton et al 2018). Cells were analyzed on BD LSRFortessa flow cytometer running BD FACSDiva software and post-acquisition data analysis was performed using FSC-Express software. Data was reported for the percentage of BrdU and subG1 gated populations. The second set of plates were collected, and cells counted using Vi-CELL XR Cell Viability Analyzer (Beckman Coulter).

[5] = biological target: T1, mouse KIF18A (residues 1-467) (Mus musculus, UniProt Q91WD7); assay: KIF18A MT-ATPase motor activity, ADP-Glo luminescence assay (Example 19); type: biochemical
T1 construct: mouse KIF18A (residues 1-467, 4 nM); made in house
Experimental: (§2) A trio of KIF18A inhibitors (Compound C9, Compound C11, and Compound C12) were synthesized and tested in vitro for KIF18A inhibitory activity. […] The values represent mean t SEM from three independent experiments. […] As in vivo studies in mice were planned, the mouse KIF18A inhibitory effects of Compound C9 and C12 were assayed.
(§3) KIF18A compounds C9, C11, C12 were 2-fold serially diluted over a 22-point concentration range in DMSO using 384-well plate (Corning). Recombinant truncated kinesin motor proteins (human KIF18A (residues 1-467, 4 nM), mouse KIF18A (residues 1-467, 4 nM)) were expressed and purified. ADP-Glo luminescence assay (Promega) was used to measure the MT-ATPase motor activity. Porcine brain MTs were procured from Cytoskeleton Inc. Compounds were pre-incubated for <30 min in reaction buffer (15 mM Tris, pH 7.5, 10 mM MgCl2, 0.01% Pluronic F-68, 2% DMSO, 1 μM paclitaxel, 30 μg/mL MTs) with motor proteins at concentrations indicated above, 30 μM ATP was added to initiate the enzymatic reaction for 15 min at room temperature (RT). ADP-Glo reagents were added according to manufactures protocol, the luminescence intensity proportional to ADP present was measured using an EnVision plate reader (Perkin Elmer). Raw luminescence signal data was normalized to POC (percentage of positive control) and then Activity (%) was computed [POC=100×(sample signal−negative control signal)+(positive control signal−negative control signal). Activity (%)=POC−100]. The positive control (enzyme+substrate) and negative control (substrate alone) had equivalent concentrations of DMSO. Curve-fitting and IC50 values were determined by 4-parameter non-linear regression equation (variable slope) using GraphPad Prism 7.05 (GraphPad Software).

[6] = biological target: T2, human KIF18A (residues 1-467) (Homo sapiens, UniProt Q8NI77); assay: as above; type: biochemical
T2 construct: human KIF18A (residues 1-467, 4 nM); made in house
Experimental: as §2, §3

OVCAR-8 tumors = assay: OVCAR-8 Tumor Xenograft Efficacy Study (IP); type: in vivo, mouse
Experimental: (§4) Animals were dosed IP daily with vehicle alone, C9 (50 or 100 mg/kg), or C12 (25 or 50 mg/kg). […] Tumor volume and body weight assessment performed as described above. After the final dose on day 46, plasma pharmacokinetic analysis was performed as described above except blood was drawn by retro-orbital bleed method.

MDA-MB-157 cells = assay: pH3 and PCM spot EC50 determination; details: pH3 and PCM spot EC50 values
OVCAR-3 tumors = assay: OVCAR-3 Tumor Xenograft Efficacy Study (IP); details: 25 mg/kg IP once daily for 18 consecutive days
Experimental: Mice were injected with human OVCAR-3 cells (5.0×10^6) subcutaneously in the right flank. Animals with established tumors were randomized into four groups (n=10 per group) with average tumor volume of 130 mm^3. […] Treatment started on day 24 post-tumor implantation and treatment terminal on day 42. Tumor volumes and body weights were recorded twice per week using a digital caliper and analytical lab scale, respectively. […] The percentage of tumor growth inhibition (% TGI) was calculated as % TGI relative to vehicle control: % TGI=100−[(Treated−Initial Volume)/(Control−Initial Volume)×100]. The percentage of tumor regression (% TR) was calculated as % TR compared final tumor volume to the initial tumor volume: % TR=100−[(Final Volume)/(Initial Volume)×100]. Data was graphed using GraphPad Prism 7.05. Statistical analysis was performed on treatment groups for tumor growth and blood counts using repeated measures ANOVA and one-way ANOVA, respectively, followed by Dunnett's multiple comparisons test.

[7] = Tolerability (body weight, blood counts) in tumor-bearing nude mice; type: in vivo, mouse; details: 18 days
Experimental: Female athymic nude mice were injected with 5×10^6 cells in 0.1 mL subcutaneously in the right flank. After tumors were established (average tumor volume of 150 mm^3), animals were randomized into 4 treatment groups (vehicle alone, KIF18A inhibitor at 10, 30, or 100 mg/kg) with 10 animals per group and treated orally once per day (PO, QD) starting on day 25 post-tumor implantation. Tumor measurement was calculated from the length, width and height of tumors measured with a PRO-MAX electronic digital caliper (Japan Micrometer Mfg. Co. LTD). The tumor volume was calculated as [L×W×H] and expressed in mm^3. Tumor volume and animal body weight measurements were determined twice per week (study start day 25, study end day 45). A single mouse was removed from the study (KIF18A inhibitor 30 mg/kg group) due to abdominal distention, a finding likely unrelated to compound.
Data was plotted using GraphPad Prism software (V7.0.4), tumor volume and body weight data are expressed as means plus or minus standard error of the mean and plotted as a function of time. Statistical significance of observed differences between growth curves were calculated using SLACR package (v.1.0.3). Statistical significance for tumor regressions were performed by paired Student's t-Test on the initial and final tumor volumes with significant tumor regression p-values (***p≤0.0001) for all three KIF18A inhibitor treatment groups. KIF18A inhibitor dose 10 mg/kg (81% regression, 5 of 10 tumor-free), 30 mg/kg (98% regression, 8 of 9 tumor-free), and 100 mg/kg (97% regression, 7 of 10 tumor-free).
Female athymic nude mice were injected with 5×10^6 OVCAR-8 cells in 0.1 mL subcutaneously in the right flank. […] Tumor volume and animal body weight measurements were determined twice per week (study start day 25, study end day 47). Tumor measurements, formulas, and regression analysis as described above for FIGS. 5A-5B. Data was plotted using GraphPad Prism software (V7.0.4), tumor volume and body weight data are expressed as means plus or minus standard error of the mean and plotted as a function of time. Statistical significance of observed differences between growth curves were calculated using SLACR package (v.1.0.3).
(§5) Data was graphed using GraphPad Prism 7.05.
(§6) Tumor volume and body weight assessment performed as described above. After the final dose on day 36, plasma pharmacokinetic analysis was performed as described above. All data analysis was performed as described above.
as §4

[8] = Terminal plasma pharmacokinetic analysis in tumor-bearing mice; type: in vivo, mouse
Experimental: as §5, §6, §4

[9] = OVCAR-3 study, C9 100 mg/kg, C12 25 mg/kg IP daily

T2 sequence (Q8NI77 1-467): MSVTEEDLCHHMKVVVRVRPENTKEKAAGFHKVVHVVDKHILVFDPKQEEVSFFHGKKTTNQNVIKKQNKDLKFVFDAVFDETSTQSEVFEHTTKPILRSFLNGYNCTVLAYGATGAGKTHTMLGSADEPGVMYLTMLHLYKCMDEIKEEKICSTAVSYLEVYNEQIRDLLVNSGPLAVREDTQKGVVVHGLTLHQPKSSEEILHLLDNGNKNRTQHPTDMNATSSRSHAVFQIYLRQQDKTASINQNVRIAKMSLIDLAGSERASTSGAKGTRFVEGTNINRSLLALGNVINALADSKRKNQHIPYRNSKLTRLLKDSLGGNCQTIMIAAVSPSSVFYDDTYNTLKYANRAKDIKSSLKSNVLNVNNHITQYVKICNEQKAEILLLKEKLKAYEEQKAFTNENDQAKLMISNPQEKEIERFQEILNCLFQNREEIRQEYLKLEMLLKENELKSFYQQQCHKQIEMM
T2 sequence (P02550 whole entry partner, the tested form may be a part): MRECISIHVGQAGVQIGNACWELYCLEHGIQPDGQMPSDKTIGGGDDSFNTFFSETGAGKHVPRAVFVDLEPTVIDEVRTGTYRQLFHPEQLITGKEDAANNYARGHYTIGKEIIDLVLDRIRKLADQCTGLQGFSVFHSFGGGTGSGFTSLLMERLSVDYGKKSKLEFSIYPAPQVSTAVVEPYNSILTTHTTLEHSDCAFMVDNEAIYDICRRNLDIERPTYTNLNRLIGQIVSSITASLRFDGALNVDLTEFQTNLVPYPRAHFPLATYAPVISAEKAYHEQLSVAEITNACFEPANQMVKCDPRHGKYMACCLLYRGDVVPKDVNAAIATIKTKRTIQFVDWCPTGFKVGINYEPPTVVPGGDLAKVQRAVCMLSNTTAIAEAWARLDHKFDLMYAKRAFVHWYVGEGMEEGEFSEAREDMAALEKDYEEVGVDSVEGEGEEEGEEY
T2 sequence (P02554 whole entry partner, the tested form may be a part): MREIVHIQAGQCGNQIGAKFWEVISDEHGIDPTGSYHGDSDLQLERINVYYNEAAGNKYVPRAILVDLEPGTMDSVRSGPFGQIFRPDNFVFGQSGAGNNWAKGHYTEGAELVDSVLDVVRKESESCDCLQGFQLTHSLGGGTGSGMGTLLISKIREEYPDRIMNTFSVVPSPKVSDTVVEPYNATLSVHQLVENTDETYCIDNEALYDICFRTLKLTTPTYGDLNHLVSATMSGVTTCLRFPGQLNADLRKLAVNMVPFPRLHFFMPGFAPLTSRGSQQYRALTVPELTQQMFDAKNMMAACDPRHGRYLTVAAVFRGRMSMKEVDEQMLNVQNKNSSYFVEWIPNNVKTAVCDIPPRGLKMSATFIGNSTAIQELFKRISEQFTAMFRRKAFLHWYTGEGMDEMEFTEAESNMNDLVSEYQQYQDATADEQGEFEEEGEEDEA
T1 sequence (Q91WD7 1-467): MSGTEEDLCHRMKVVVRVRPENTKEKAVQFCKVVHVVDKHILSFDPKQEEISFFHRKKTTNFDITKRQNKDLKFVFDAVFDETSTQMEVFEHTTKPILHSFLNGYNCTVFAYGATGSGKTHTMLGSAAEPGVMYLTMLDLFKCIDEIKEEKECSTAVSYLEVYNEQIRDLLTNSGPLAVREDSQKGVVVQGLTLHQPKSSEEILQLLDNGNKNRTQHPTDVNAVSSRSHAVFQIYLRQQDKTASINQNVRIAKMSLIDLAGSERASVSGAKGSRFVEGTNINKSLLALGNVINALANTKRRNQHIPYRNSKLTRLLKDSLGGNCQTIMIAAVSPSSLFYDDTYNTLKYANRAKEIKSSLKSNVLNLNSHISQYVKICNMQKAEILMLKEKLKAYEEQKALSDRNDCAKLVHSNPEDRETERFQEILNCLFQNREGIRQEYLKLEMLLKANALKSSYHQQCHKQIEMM
T1 sequence (P02550 whole entry partner, the tested form may be a part): as the sequence (P02550 whole entry partner, the tested form may be a part) above
T1 sequence (P02554 whole entry partner, the tested form may be a part): as the sequence (P02554 whole entry partner, the tested form may be a part) above

Row | Compound | reduction in cell growth [1] | BrdU incorporation relative to DMSO treated cells [2] | BrdU incorporation relative to DMSO treated cells [3] | cell cycle DNA content profiles ([4]; 48 h, C9, C11, palbociclib 1 μM, ispinesib 0.05 μM, paclitaxel) | BrdU incorporation (cell cycle analysis) relative to DMSO/vehicle control ([4]; two normal donors, 48 h, C9, C11, palbociclib 1 μM, ispinesib 0.05 μM, paclitaxel) | BrdU incorporation (cell cycle analysis) relative to DMSO/vehicle control ([4]; two normal donors, 48 h, C9, C11, palbociclib 1 μM, ispinesib 0.05 μM, paclitaxel, listed as ispinesib) | live cell count relative to vehicle control ([4]; two normal donors, 96 hours) | IC50 [5] | IC50 [6] | tumor regression (OVCAR-8 tumors; 25 mg/kg IP once daily for 18 consecutive days) | tumor regression (OVCAR-8 tumors; 50 mg/kg IP once daily for 18 consecutive days) | improvement of cell potency relative to a control compound (MDA-MB-157 cells) | tumor regression (OVCAR-3 tumors) | tolerability (body weight) ([7]; CAL-51 study, C9 100 mg/kg, C12 25 mg/kg IP daily) | monocyte count ([7]; OVCAR-3 study, 25 mg/kg IP daily, p=0.043) | body weight loss or changes in blood counts [7, 9] | tolerability [7, 9] | tolerability (body weight) ([7]; OVCAR-8 study, C9 50 or 100 mg/kg, C12 25 or 50 mg/kg IP daily) | plasma AUC in OVCAR-8 study relative to the other efficacy studies ([8]; at matched doses) | AUC ([8]; nude, mouse, plasma, OVCAR-3 study, 25 mg/kg IP, after the final dose)
1 | Cc1ccc(C(=O)N(CCCN)[C@@H](c2nc3cc(Cl)ccc3c(=O)n2Cc2ccccc2)C(C)C)cc1 [Ispinesib, reference compound] | ~88% | decrease in BrdU incorporation | decrease in BrdU incorporation | marked effects on cell cycle DNA content profiles | far less | clearly cytotoxic | lower cell count | – | – | – | – | – | – | – | – | – | – | – | – | –
2 | C[C@@H]1CN(c2cccc(NC(=O)c3ccc(NS(=O)(=O)CCO)cc3N3CCC4(CC3)CC4)n2)CCO1 [Compound C12, (R)-4-((2-Hydroxyethyl)sulfonamido)-N-(6-(2-methylmorpholino)pyridin-2-yl)-2-(6-azaspiro[2.5]octan-6-yl)benzamide] | – | – | – | – | – | – | – | 39 nM | 40 nM | 19% | 75% | > 120 fold | 46% | well-tolerated | decrease on monocytes | no evidence of body weight loss or changes in blood counts | well-tolerated | well-tolerated | 2.8 fold | 53 µM·h

— patent publication US20230151432A1, “KIF18A INHIBITORS FOR TREATMENT OF NEOPLASTIC DISEASES” (AMGEN INC., priority 2020, published 2023)
